Counter-ions that a name gives are not always drawn.
Assays:
SNUC2A = assay: MTS assay, cytotoxicity on colorectal cancer cell line SNUC2A; type: cell-based; conditions: RON mutation negative, KRAS G12D, 72 hours
Protocol: (§1) MTS assay was performed to compare cytotoxicity of the compounds of Example 1, Example 2, Example 3, Example 4, Example 5, Example 6, and positive control 1 on a colorectal cancer cell line, and a cell death rate of the colorectal cancer cell line was analyzed to compare anticancer activity of the compounds.
(§2) The MTS assay was performed by seeding each colorectal cell line in a 96-well plate at 1,000 cells per well, and after 24 hours, performing treatment with the compounds of Examples 1 to 6 and positive control 1 at various concentrations (0.000001 μM to 10 μM) in 100 μL of 10% FBS-RPMI medium (WELGENE Inc.) per well. The cells were incubated for 72 hours. Then, 20 μL of MTS solution (Promega) was added thereto, and the cells were incubated for 2 hours. Then, the absorbance was measured at 490 nm. The IC50 values for the compounds of Examples 1 to 6 and positive control 1 were calculated using GraphPad Prism™ 5 to investigate cytotoxicity.

HCT8 = assay: MTS assay, cytotoxicity on colorectal cancer cell line HCT8; type: cell-based; conditions: Homo sapiens, HCT-8, RON wt, KRAS G13D, 72 hours
Protocol: as §1, §2

DLD1 = assay: MTS assay, cytotoxicity on colorectal cancer cell line DLD1; type: cell-based; conditions: Homo sapiens, DLD-1, RON wt, KRAS G13D, 72 hours
Protocol: as §1, §2

HCT15 = assay: MTS assay, cytotoxicity on colorectal cancer cell line HCT15; type: cell-based; conditions: Homo sapiens, HCT-15, RON Δ160, KRAS G13D, 72 hours
Protocol: as §1, §2

SW480 = assay: MTS assay, cytotoxicity on colorectal cancer cell line SW480; type: cell-based; conditions: Homo sapiens, RON Δ155, KRAS G12V, 72 hours
Protocol: as §1, §2

SW620 [1] = assay: MTS assay, cytotoxicity on colorectal cancer cell line SW620; type: cell-based; conditions: Homo sapiens, SW-620, RON Δ155, KRAS G12V, 72 hours
Protocol: as §1, §2

T84 [2] = assay: MTS assay, cytotoxicity on colorectal cancer cell line T84; type: cell-based; conditions: Homo sapiens, RON Δ165, KRAS G13D, 72 hours
Protocol: as §1, §2

[3] = test system: colorectal cancer cell line; assay: MTS assay, summary over the colorectal cancer cell lines; type: cell-based; conditions: summary in words of Table 1
Protocol: as §1, §2

T84 [4] = assay: Cell death induction, trypan blue cell counting, T84; type: cell-based; conditions: T84 with a RON mutation; 1 μM; 48 hours; FIG. 1
Protocol: (§3) Based on the results above, to identify the cell death-inducing ability of the compounds of Example 1 and positive control 1, which are representative materials, preparation was performed by seeding respective colorectal cancer cell lines SNU-[…], HCT8, T84, and SW620 onto 60-mm plates at 3×10^5 cells, and then incubation was performed for 24 hours. Thereafter, treatment with each of Example 1 and positive control 1 was performed at 1μM and incubation was performed for 48 hours. After 48 hours, the cells and cell suspensions were collected by treatment with trypsin, resuspended in 1× PBS and stained using a trypan blue solution (Sigma, cat# T8154). The stained cells were counted using a hemocytometer. Cell counting was repeated, and the mean and the standard deviation were calculated.

SW620 [5] = assay: Cell death induction, trypan blue cell counting, SW620; type: cell-based, human; conditions: 1 μM, 48 hours; for cell death rate: SW620 (KRAS G12V/mRON Δ155), FIG. 2
Protocol: as §3, with “48 hours. In addition, preparation was performed by seeding the cell line SW620 onto a 60-mm plate at 3×10^5 cells, and then incubation was performed for 24 hours. Thereafter, treatment with each of Example 1, positive control 1, positive control 2, and positive control 3 was performed at 1 μM. After 48” for “48 hours. After 48”

[6] = test system: HCT8 (KRAS G13D/pTyr-wtRON(+)); assay: Cell line HCT8-transplanted mouse model; type: in vivo, BALB/c nude mice; conditions: 10 mg/kg, oral, once a day for 4 weeks
Protocol: 5-Week-old female BALB/c nude mice were purchased and acclimatized for 1 week. Then, human colorectal cancer patient-derived cell line SW620 (KRAS
G12V/mRON Δ155) at 5×10^6 cells/mouse was injected subcutaneously (100 μL) into the right dorsal side of the mice. The compound of Example 1 was orally administered when the tumor reached a size of about 100 mm^3. The drug was administered once a day for 4 weeks, and tumor size and mouse body weight were measured twice a week. After completion of the drug administration, the experimental animals were euthanized, and then the tumors were extracted and weighed for comparative analysis.
A portion of the extracted tumor tissue was fixed in 10% formalin and processed into a paraffin block. Then, the block was made into sections. Staining of the slide was performed through immunochemical staining. Another portion of the extracted tumor tissue was subjected to lysis, and then Western blotting was used to identify changes in expression of respective proteins.
The experiment was conducted in the same method as the procedure of Experimental Example 3, except that human colorectal cancer patient-derived cell line HCT8 (KRAS G13D/pTyr-wtRON(+)) was used in place of the human colorectal cancer patient-derived cell line SW620 (KRAS G12V/mRON Δ155), and the respective compounds of Example 1, positive control 1, and positive control 2 were administered.

Compound	IC50 (SNUC2A)	IC50 (HCT8)	IC50 (DLD1)	IC50 (HCT15)	IC50 (SW480)	IC50 (SW620 [1])	IC50 (T84 [2])	efficiency / response in MTS assay over the cell lines [3]	cell death induction efficacy (T84 [4])	cell death rate (SW620 [5])	cell death induction efficacy (SW620 [5]; SW620 with a RON mutation, FIG. 1)	Tumor growth inhibition (TGI, %) [6]
Cn1cnc(-c2cc3nccc(Oc4ccc(NC(=O)c5c6c(cn(-c7ccc(F)cc7)c5=O)CCO6)cc4F)c3s2)c1 [Example 4]	7.53 µM	1200 nM	660 nM	1270 nM	670 nM	> 10000 nM	170 nM	high efficiency in the cell lines (HCT8 and DLD-1)	–	–	–	–
CCOc1ccn(-c2ccc(F)cc2)c(=O)c1C(=O)Nc1ccc(Oc2ccnc(N)c2Cl)c(F)c1 [Positive control 1, N-{4-[(2-amino-3-chloro-4-pyridinyl)oxy]-3-fluorophenyl}-4-ethoxy-1-(4-fluorophenyl)-2-oxo-1,2-dihydro-3-pyridinecarboxamide, reference compound]	> 10 µM	7320 nM	4720 nM	3240 nM	3540 nM	5000 nM	8400 nM	high IC50 values in most cell lines	little response	cell death was not induced	little response	−7.5 ± 36.3%
CCOc1ccn(-c2ccccc2)c(=O)c1C(=O)Nc1ccc(Oc2ccnc3cc(-c4ccc(CN5CCN(C)CC5)cn4)sc23)c(F)c1 [Example 3, 4-ethoxy-N-{3-fluoro-4-[(2-{5-[(4-methylpiperazin-1-yl)methyl]pyridin-2-yl}thieno[3,2-b]pyridin-7-yl)oxy]phenyl}-2-oxo-1-phenyl-1,2-dihydropyridine-3-carboxamide hydrochloride]	4.6 µM	480 nM	300 nM	390 nM	660 nM	260 nM	220 nM	–	–	–	–	–
COc1cc2nccc(Oc3ccc(NC(=O)C4(C(=O)Nc5ccc(F)cc5)CC4)cc3)c2cc1OC [Positive control 3, N-(4-{[6,7-bis(methyloxy)quinoline-4-yl]oxy}phenyl)-N′-(4-fluorophenyl)cyclopropane-1,1-dicarboxamide]	–	–	–	–	–	–	–	–	–	cell death was not induced	–	–
COc1cc2c(Oc3ccc(NC(=O)c4c5c(cn(-c6ccc(F)cc6)c4=O)CCO5)cc3F)ccnc2cc1OCCCN1CC(C#N)C1 [Example 6, N-(4-((7-(3-(3-cyanoazetidine-1-yl)propoxy)-6-methoxyquinoline-4-yl)oxy)-3-fluorophenyl)-5-(4-fluorophenyl)-6-oxo-2,3,5,6-tetrahydrofuro[3,2-c]pyridine-7-carboxamide]	1.32 µM	330 nM	170 nM	140 nM	320 nM	110 nM	200 nM	–	–	–	–	–
C[C@@H](Oc1cc(-c2cnn(C3CCNCC3)c2)cnc1N)c1c(Cl)ccc(F)c1Cl [Positive control 2, reference compound]	–	–	–	–	–	–	–	–	–	cell death was not induced	–	23.2 ± 7.8%
COc1cc2c(Oc3ccc(NC(=O)c4c5c(cn(-c6ccc(F)cc6)c4=O)CCO5)cc3F)ccnc2cc1OCCN1CCOCC1 [Example 5, N-(3-fluoro-4-((6-methoxy-7-(2-morpholinoethoxy)quinolin-4-yl)oxy)phenyl)-5-(4-fluorophenyl)-6-oxo-2,3,5,6-tetrahydrofuro[3,2-c]pyridine-7-carboxamide]	3.82 µM	780 nM	230 nM	390 nM	110 nM	1000 nM	810 nM	–	–	–	–	–
CCOc1ccn(-c2ccccc2)c(=O)c1C(=O)Nc1ccc(Oc2ccnc3cc(-c4ccc(CNCCOC)cn4)sc23)c(F)c1 [Example 2, 4-ethoxy-N-(3-fluoro-4-{[2-(5-{[(2-methoxyethyl)amino]methyl}pyridine-2-yl)thieno[3,2-b]pyridine-7-yl]oxy}phenyl)-2-oxo-1-phenyl-1,2-dihydropyridine-3-carboxamide hydrochloride]	4.44 µM	260 nM	210 nM	220 nM	1250 nM	370 nM	210 nM	–	–	–	–	–

— patent publication US20230099204A1, “PHARMACEUTICAL COMPOSITION FOR PREVENTION OR TREATMENT OF CANCER IN WHICH KRAS MUTATION AND ACTIVATED RON ARE PRESENT” (WELLMARKER BIO CO., LTD., priority 2020, published 2023)
